{"source": "the NIST ThermoML archive (doi:10.1016/j.fluid.2005.11.014)", "conditions": "313.15 K; Liquid; Closed cell (Static) method", "note": "“And” between values parts separate entries of the source, which are not always exact repeats. Identical values can stand only once. Numbers after ± are expanded uncertainties.", "data": [{"smiles": "CC(C)OC(C)C", "note": "[diisopropyl ether]", "values": [{"measurement": "vapor or sublimation pressure", "value": "37.1 ± 0.15 kPa and 37.11 ± 0.15 kPa and 37.12 ± 0.15 kPa"}]}, {"smiles": "CCCO", "note": "[propan-1-ol]", "values": [{"measurement": "vapor or sublimation pressure", "value": "7.003 ± 0.038 kPa and 7 ± 0.038 kPa"}]}, {"smiles": "c1ccccc1", "note": "[benzene]", "values": [{"measurement": "vapor or sublimation pressure", "value": "24.39 ± 0.097 kPa and 24.37 ± 0.097 kPa"}]}]}
